The term MIC80 denotes the lowest concentration that inhibits either 80% of growth or 80% of the strains tested, depending on the study. A low value points to higher susceptibility.

Format in all cases: functional
Assay [1] relates to Candida albicans. Put plainly: Antifungal activity against Candida albicans SC5314 after 24 hrs by microbroth dilution method. The conditions noted are these: SC5314, 24 h. Background: Broth dilution looks for growth in wells or tubes with falling amounts of substance.
The subject of another assay is Kluyveromyces marxianus. Put plainly: Antifungal activity against Candida kefyr by microbroth dilution method.
For the next assay, the system named is Aspergillus fumigatus. Put plainly: Antifungal activity against Aspergillus fumigatus by microbroth dilution method.
A further assay has as its system Candida tropicalis. Put plainly: Antifungal activity against Candida tropicalis by microbroth dilution method.
In the next assay the test system is Candida parapsilosis. Put plainly: Antifungal activity against Candida parapsilosis by microbroth dilution method. The conditions noted are these: Lodderomyces parapsilosis.
The next assay deals with Cryptococcus neoformans. Put plainly: Antifungal activity against Cryptococcus neoformans after 72 hrs by microbroth dilution method.
The subject of assay [2] is Candida albicans. Put plainly: Antifungal activity against Candida albicans Y0109 after 24 hrs by microbroth dilution method. The conditions noted are these: Y0109, 24 h.
For a further assay, the system named is Trichophyton rubrum. Put plainly: Antifungal activity against Trichophyton rubrum by microbroth dilution method.

Values after ≈ are worked out from the molar mass of the structure shown. A value given as a limit tells only on which side of the number the result lay.

In the case of `OC(Cn1cncn1)(Cn1cncn1)c1ccc(F)cc1F` [FLUCONAZOLE], the MIC80 with Candida albicans [1] stood at 0.5 µg/mL (≈ 1.63 µM); in the assay with Kluyveromyces marxianus, 4 µg/mL (≈ 13.1 µM); with Aspergillus fumigatus, 64 µg/mL (≈ 209 µM); against Candida tropicalis it was 1 µg/mL (≈ 3.27 µM); in the assay on Candida parapsilosis, 0.5 µg/mL (≈ 1.63 µM); in the assay on Cryptococcus neoformans it was 1 µg/mL (≈ 3.27 µM). The MIC80 stood at 0.5 µg/mL (≈ 1.63 µM) in the assay with Candida albicans [2] and 1 µg/mL (≈ 3.27 µM) in the assay with Trichophyton rubrum.

Turning to `N#Cc1ccc(Cn2cc(CC(O)(Cn3cncn3)c3ccc(F)cc3F)nn2)cc1` (stereo unspecified), the MIC80 against Candida albicans [1] is 0.125 µg/mL (≈ 0.297 µM); in the assay with Kluyveromyces marxianus, < 0.125 µg/mL; in the assay with Aspergillus fumigatus it was 32 µg/mL (≈ 75.9 µM); against Candida tropicalis, 0.125 µg/mL (≈ 0.297 µM); against Candida parapsilosis, 0.25 µg/mL (≈ 0.593 µM); against Cryptococcus neoformans it was 0.5 µg/mL (≈ 1.19 µM). Moreover, the MIC80 with Candida albicans [2] came out at 0.0625 µg/mL (≈ 0.148 µM); with Trichophyton rubrum it was 0.25 µg/mL (≈ 0.593 µM).

Take `OC(Cc1cn(Cc2ccccc2Br)nn1)(Cn1cncn1)c1ccc(F)cc1F` (stereo unspecified): the MIC80 against Candida albicans [1] is 0.0625 µg/mL (≈ 0.131 µM); in the assay on Kluyveromyces marxianus, 0.0625 µg/mL (≈ 0.131 µM); in the assay with Aspergillus fumigatus, 4 µg/mL (≈ 8.42 µM); in the assay with Candida tropicalis, 0.0625 µg/mL (≈ 0.131 µM); against Candida parapsilosis, 0.0625 µg/mL (≈ 0.131 µM); with Cryptococcus neoformans it was 0.25 µg/mL (≈ 0.526 µM). For the same molecule, the MIC80 in the assay on Candida albicans [2] was found to be 0.0625 µg/mL (≈ 0.131 µM); against Trichophyton rubrum it was 0.25 µg/mL (≈ 0.526 µM).

In the case of `Cc1cccc(Cn2cc(CC(O)(Cn3cncn3)c3ccc(F)cc3F)nn2)c1` (stereo unspecified), the MIC80 against Candida albicans [1] worked out at 0.0625 µg/mL (≈ 0.152 µM); against Kluyveromyces marxianus it was 0.0156 µg/mL (≈ 0.038 µM); with Aspergillus fumigatus, 4 µg/mL (≈ 9.75 µM); in the assay on Candida tropicalis, 0.125 µg/mL (≈ 0.305 µM); against Candida parapsilosis, 0.0625 µg/mL (≈ 0.152 µM); with Cryptococcus neoformans, 0.125 µg/mL (≈ 0.305 µM). Moreover, the MIC80 was 0.0156 µg/mL (≈ 0.038 µM) with Candida albicans [2] and 0.0625 µg/mL (≈ 0.152 µM) against Trichophyton rubrum.

As for `CCC(C)n1ncn(-c2ccc(N3CCN(c4ccc(OCC5COC(Cn6cncn6)(c6ccc(Cl)cc6Cl)O5)cc4)CC3)cc2)c1=O` (stereo unspecified) [ITRACONAZOLE], the MIC80 in the assay with Candida albicans [1] was 0.0625 µg/mL (≈ 0.0886 µM); with Kluyveromyces marxianus, 0.125 µg/mL (≈ 0.177 µM); against Aspergillus fumigatus, 0.0625 µg/mL (≈ 0.0886 µM); against Candida tropicalis, 0.0625 µg/mL (≈ 0.0886 µM); in the assay on Candida parapsilosis it was 0.0625 µg/mL (≈ 0.0886 µM); in the assay with Cryptococcus neoformans it was 0.0625 µg/mL (≈ 0.0886 µM). In addition, the MIC80 against Candida albicans [2] and with Trichophyton rubrum was 0.0625 µg/mL (≈ 0.0886 µM) throughout.

As for `N#Cc1cccc(Cn2cc(CC(O)(Cn3cncn3)c3ccc(F)cc3F)nn2)c1` (stereo unspecified), the MIC80 is 0.125 µg/mL (≈ 0.297 µM) against Candida albicans [1]; < 0.125 µg/mL in the assay with Kluyveromyces marxianus; 32 µg/mL (≈ 75.9 µM) with Aspergillus fumigatus; 0.125 µg/mL (≈ 0.297 µM) against Candida tropicalis; 0.25 µg/mL (≈ 0.593 µM) with Candida parapsilosis; 1 µg/mL (≈ 2.37 µM) in the assay on Cryptococcus neoformans. The MIC80 came to 0.0625 µg/mL (≈ 0.148 µM) in the assay on Candida albicans [2] and 0.25 µg/mL (≈ 0.593 µM) in the assay with Trichophyton rubrum.

In the case of `O=[N+]([O-])c1ccc(Cn2cc(CC(O)(Cn3cncn3)c3ccc(F)cc3F)nn2)cc1` (stereo unspecified), the MIC80 was < 0.125 µg/mL against Candida albicans [1]; 0.0625 µg/mL (≈ 0.142 µM) in the assay with Kluyveromyces marxianus; 16 µg/mL (≈ 36.2 µM) with Aspergillus fumigatus; 0.125 µg/mL (≈ 0.283 µM) in the assay on Candida tropicalis; 0.25 µg/mL (≈ 0.566 µM) against Candida parapsilosis; 0.5 µg/mL (≈ 1.13 µM) with Cryptococcus neoformans. For the same molecule, the results for the MIC80 with Candida albicans [2] and against Trichophyton rubrum were 0.0625 µg/mL (≈ 0.142 µM) and 0.25 µg/mL (≈ 0.566 µM), respectively.

With `N#Cc1ccccc1Cn1cc(CC(O)(Cn2cncn2)c2ccc(F)cc2F)nn1` (stereo unspecified), the MIC80 is 0.125 µg/mL (≈ 0.297 µM) with Candida albicans [1]; < 0.125 µg/mL with Kluyveromyces marxianus; 16 µg/mL (≈ 38 µM) against Aspergillus fumigatus; 0.125 µg/mL (≈ 0.297 µM) with Candida tropicalis; 0.25 µg/mL (≈ 0.593 µM) against Candida parapsilosis; 0.5 µg/mL (≈ 1.19 µM) in the assay on Cryptococcus neoformans. In addition, the MIC80 in the assay on Candida albicans [2] is 0.0625 µg/mL (≈ 0.148 µM); with Trichophyton rubrum, 0.25 µg/mL (≈ 0.593 µM).

As for `Cc1ccccc1Cn1cc(CC(O)(Cn2cncn2)c2ccc(F)cc2F)nn1` (stereo unspecified), the MIC80 against Candida albicans [1] was found to be 0.0625 µg/mL (≈ 0.152 µM); against Kluyveromyces marxianus it was 0.0039 µg/mL (≈ 0.0095 µM); with Aspergillus fumigatus it was 2 µg/mL (≈ 4.87 µM); against Candida tropicalis, 0.125 µg/mL (≈ 0.305 µM); in the assay on Candida parapsilosis, 0.0625 µg/mL (≈ 0.152 µM); with Cryptococcus neoformans it was 0.125 µg/mL (≈ 0.305 µM). Besides, the results for the MIC80 against Candida albicans [2] and with Trichophyton rubrum were 0.0156 µg/mL (≈ 0.038 µM) and 0.0625 µg/mL (≈ 0.152 µM), respectively.

For the molecule `COc1ccc(OC)c(Cn2cc(CC(O)(Cn3cncn3)c3ccc(F)cc3F)nn2)c1` (stereo unspecified), the MIC80 was found to be 0.0625 µg/mL (≈ 0.137 µM) with Candida albicans [1]; 0.0625 µg/mL (≈ 0.137 µM) against Kluyveromyces marxianus; 2 µg/mL (≈ 4.38 µM) in the assay on Aspergillus fumigatus; 0.125 µg/mL (≈ 0.274 µM) against Candida tropicalis; 0.0625 µg/mL (≈ 0.137 µM) with Candida parapsilosis; 0.0625 µg/mL (≈ 0.137 µM) with Cryptococcus neoformans. Further, the MIC80 worked out at 0.0156 µg/mL (≈ 0.0342 µM) with Candida albicans [2] and 0.0625 µg/mL (≈ 0.137 µM) in the assay on Trichophyton rubrum.

In the case of `OC(Cc1cn(Cc2cccc(Br)c2)nn1)(Cn1cncn1)c1ccc(F)cc1F` (stereo unspecified), the MIC80 is < 0.125 µg/mL against Candida albicans [1]; 0.125 µg/mL (≈ 0.263 µM) in the assay on Kluyveromyces marxianus; 8 µg/mL (≈ 16.8 µM) against Aspergillus fumigatus; 0.25 µg/mL (≈ 0.526 µM) in the assay with Candida tropicalis; 0.125 µg/mL (≈ 0.263 µM) in the assay with Candida parapsilosis; 0.25 µg/mL (≈ 0.526 µM) with Cryptococcus neoformans. The MIC80 in the assay with Candida albicans [2] is 0.0625 µg/mL (≈ 0.131 µM); against Trichophyton rubrum, 0.25 µg/mL (≈ 0.526 µM).

On to `OC(Cc1cn(Cc2ccc(F)cc2)nn1)(Cn1cncn1)c1ccc(F)cc1F` (stereo unspecified), for which the MIC80 with Candida albicans [1] was < 0.125 µg/mL; with Kluyveromyces marxianus it was 0.0625 µg/mL (≈ 0.151 µM); against Aspergillus fumigatus it was 32 µg/mL (≈ 77.2 µM); in the assay on Candida tropicalis it was 0.25 µg/mL (≈ 0.603 µM); in the assay on Candida parapsilosis, 0.125 µg/mL (≈ 0.302 µM); against Cryptococcus neoformans, 0.25 µg/mL (≈ 0.603 µM). Moreover, the results for the MIC80 against Candida albicans [2] and with Trichophyton rubrum were 0.0625 µg/mL (≈ 0.151 µM) and 0.125 µg/mL (≈ 0.302 µM), respectively.

For the origin of these results see ChEMBL document CHEMBL2016536, “New triazole derivatives as antifungal agents: synthesis via click reaction, in vitro evaluation and molecular docking studies” (2012).
